These results are taken from patent US8859493B2, “Insulin derivatives” (Novo Nordisk A/S, priority 2005, dated 2014).

The target in this experiment is human insulin receptor (Homo sapiens, UniProt P06213). In words: Insulin receptor binding, SPA (Scintillation Proximity Assay) microtiterplate antibody capture assay. The note with it: relative to human insulin; purified recombinant human insulin receptor - exon 11; A14 Tyr[125I]-human insulin tracer; 16 hours incubation. The protocol:
The affinity of the insulin analogues of the invention for the human insulin receptor was determined by a SPA assay (Scintillation Proximity Assay) microtiterplate antibody capture assay. SPA-PVT antibody-binding beads, anti-mouse reagent (Amersham Biosciences, Cat No. PRNQ0017) were mixed with 25 ml of binding buffer (100 mM HEPES pH 7.8; 100 mM sodium chloride, 10 mM MgSO4, 0.025% Tween-20). Reagent mix for a single Packard Optiplate (Packard No. 6005190) is composed of 2.4 μl of a 1:5000 diluted purified recombinant human insulin receptor—exon 11, an amount of a stock solution of A14 Tyr[^125I]-human insulin corresponding to 5000 cpm per 100 μl of reagent mix, 12 μl of a 1:1000 dilution of F12 antibody, 3 ml of SPA-beads and binding buffer to a total of 12 ml. A total of 100 μl was then added and a dilution series is made from appropriate samples. To the dilution series was then added 100 μl of reagent mix and the samples were incubated for 16 hours while gently shaken. The phases were the then separated by centrifugation for 1 min and the plates counted in a Topcounter. The binding data were fitted using the nonlinear regression algorithm in the GraphPad Prism 2.01 (GraphPad Software, San Diego, Calif.).

Chain of human insulin receptor (P06213 28-746 isoform P06213-2 limits assumed): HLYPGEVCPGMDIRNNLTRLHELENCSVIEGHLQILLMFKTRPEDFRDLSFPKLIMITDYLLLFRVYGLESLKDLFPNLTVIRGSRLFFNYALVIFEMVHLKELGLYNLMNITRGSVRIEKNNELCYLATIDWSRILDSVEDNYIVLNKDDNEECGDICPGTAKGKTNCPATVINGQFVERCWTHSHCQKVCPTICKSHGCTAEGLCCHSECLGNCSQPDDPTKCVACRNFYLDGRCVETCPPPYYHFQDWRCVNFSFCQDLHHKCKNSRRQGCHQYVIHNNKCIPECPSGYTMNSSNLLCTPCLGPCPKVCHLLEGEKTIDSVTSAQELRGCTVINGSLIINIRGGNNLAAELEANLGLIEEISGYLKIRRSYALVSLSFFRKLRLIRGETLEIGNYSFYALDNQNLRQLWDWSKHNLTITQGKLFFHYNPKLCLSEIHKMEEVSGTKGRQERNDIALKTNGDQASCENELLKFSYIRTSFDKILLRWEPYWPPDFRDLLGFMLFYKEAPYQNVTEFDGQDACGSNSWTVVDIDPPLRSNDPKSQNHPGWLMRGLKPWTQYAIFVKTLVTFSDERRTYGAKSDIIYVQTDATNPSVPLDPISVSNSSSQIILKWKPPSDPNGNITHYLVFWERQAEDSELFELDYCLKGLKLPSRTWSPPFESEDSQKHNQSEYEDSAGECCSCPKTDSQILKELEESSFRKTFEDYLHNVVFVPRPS
Chain of human insulin receptor (P06213 763-1382 partner limits assumed): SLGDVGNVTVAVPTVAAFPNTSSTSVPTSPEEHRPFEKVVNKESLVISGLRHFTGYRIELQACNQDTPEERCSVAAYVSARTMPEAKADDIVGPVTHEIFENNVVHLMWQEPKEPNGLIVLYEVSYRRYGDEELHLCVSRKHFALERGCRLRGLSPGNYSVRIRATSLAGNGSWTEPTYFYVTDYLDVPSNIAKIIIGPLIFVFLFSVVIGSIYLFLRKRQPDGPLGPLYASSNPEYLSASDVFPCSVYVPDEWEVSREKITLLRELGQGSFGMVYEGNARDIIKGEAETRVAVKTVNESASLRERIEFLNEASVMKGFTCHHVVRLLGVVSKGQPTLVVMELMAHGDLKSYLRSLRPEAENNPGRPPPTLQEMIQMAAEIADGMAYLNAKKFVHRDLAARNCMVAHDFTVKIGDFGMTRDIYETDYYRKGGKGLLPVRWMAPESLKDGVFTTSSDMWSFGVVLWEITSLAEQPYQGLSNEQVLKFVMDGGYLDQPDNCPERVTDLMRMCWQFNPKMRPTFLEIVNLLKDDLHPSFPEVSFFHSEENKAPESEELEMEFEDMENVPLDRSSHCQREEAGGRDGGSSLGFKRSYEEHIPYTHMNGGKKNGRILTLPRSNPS

As for “N^εB29-3-[2-(2-{2-[2-(ω-carboxy-heptadecanoylamino)-ethoxy]-ethoxy}-ethoxy)-ethoxy]-propionyl-γ-glutamyl desB30 human insulin [example 6]”, the “Insulin receptor affinity in relation to human insulin” value (shortened to “Insulin receptor affinity in relation”) is recorded as 8.3.

With “N^εB29-(3-(2-{2-[2-(2-{2-[2-(2-{2-[2-(2-{2-[2-(13-carboxy-tridecanoylamino)-ethoxy]-ethoxy}-ethoxy)-ethoxy]-ethoxy}-ethoxy)-ethoxy]-ethoxy}-ethoxy)-ethoxy]-ethoxy}-ethoxy)-propionoyl-γ-glutamyl) desB30 human insulin [example 14]”, the “Insulin receptor affinity in relation” value came out at 15.

As for “N^εB29-(3-(2-{2-[2-(9-carboxynonanoylamino)ethoxy]ethoxy}ethylcarbamoyl) propionyl-γ-glutamyl) desB30 human insulin [example 10]”, the “Insulin receptor affinity in relation” value is listed as 27.

For the substance “N^εB29-(3-(2-{2-[2-(15-Carboxy-pentadecanoylamino)-ethoxy]-ethoxy}-ethylcarbamoyl)-propionyl-γ-glutamyl) desB30 human insulin [example 17]”, the “Insulin receptor affinity in relation” value was 17.

In the case of “N^εB29-(3-(3-{2-[2-(3-[7-carboxyheptanoylamino]propoxy)ethoxy]-ethoxy}propylcarbamoyl)propionyl) desB30 human insulin [example 7]”, the “Insulin receptor affinity in relation” value was 35.

Turning to “N^εB29-(3-(3-{2-[2-(3-[9-Carboxynonanoylamino]propoxy)ethoxy]ethoxy}-propylcarbamoyl)propionyl) desB30 human insulin [example 9]”, the “Insulin receptor affinity in relation” value is 34.

Regarding “N^εB29-(3-(3-{4-[3-(7-Carboxyheptanoylamino)propoxy]butoxy}propylcarbamoyl)-propionyl-γ-glutamyl) desB30 human insulin [example 8]”, the “Insulin receptor affinity in relation” value stood at 34.

For “N^εB29-(3-[2-(2-(2-[2-(13-Carboxy-tridecanoylamino)-ethoxy)-ethoxy]-ethoxy)-ethoxy]-propionoyl-γ-glutamyl) desB30 human insulin [example 15]”, the “Insulin receptor affinity in relation” value is 35.

For “N^εB29-(3-[2-(2-{2-[2-(2-{2-[2-(13-carboxy-tridecanoylamino)-ethoxy]-ethoxy)-ethoxy)-ethoxy]-ethoxy}-ethoxy)-ethoxy]-ethoxy}-propionoyl-γ-glutamyl) desB30 human insulin [example 16]”, the “Insulin receptor affinity in relation” value is 31.

Take “N^εB29-(3-[2-(2-{2-[2-(15-carboxypentadecanoylamino)ethoxy]ethoxy}ethoxy)-ethoxy]propionyl)) desB30 human insulin [example 13]”: the “Insulin receptor affinity in relation” value worked out at 17.

Consider “N^εB29-(3-[2-{2-(2-[ω-carboxy-heptadecanoyl-γ-glutamyl-(2-amino-ethoxy)]-ethoxy)-ethoxy}-ethoxy]-propionyl) desB30 human insulin [example 2]”, for which the “Insulin receptor affinity in relation” value worked out at 12.

For “N^εB29-(3-[2-{2-(2-[ω-carboxy-pentadecanoyl-γ-glutamyl-(2-amino-ethoxy)]-ethoxy)-ethoxy}-ethoxy]-propionyl) desB30 human insulin [example 1]”, the “Insulin receptor affinity in relation” value turned out to be 11.

Turning to “N^εB29-(ω-[2-(2-{2-[2-(2-carboxy-ethoxy)-ethoxy]-ethoxy}-ethoxy)-ethylcarbamoyl]-heptadecanoyl-α-glutamyl) desB30 human insulin [example 4]”, the “Insulin receptor affinity in relation” value is reported as 9.2.

Take “N^εB29-(ω-[2-(2-{2-[2-(2-carboxy-ethoxy)-ethoxy]-ethoxy}-ethoxy)-ethylcarbamoyl]-heptadecanoyl-γ-glutamyl) desB30 human insulin [example 5]”: the “Insulin receptor affinity in relation” value came to 5.6.

Consider “N^εB29-{3-[2-(2-{2-[2-(15-carboxy-pentadecanoylamino)-ethoxy]-ethoxy}-ethoxy)-ethoxy]-propionyl-γ-glutamyl desB30 human insulin [example 3]”, for which the “Insulin receptor affinity in relation” value amounted to 14.
